Test results as given in patent publication US20260258050A1, “IMMUNOMODULATOR” (HITGEN INC., priority 2023, published 2026).

target: T1, Human IL-17AF (Homo sapiens, UniProt Q16552+Q96PD4); experiment: IL-17AF ELISA (competitive ELISA, IL-17AF/IL-17Ra receptor-ligand binding); conditions: human IL-17AF coated plate, human IL-17Ra, read-out: IC50, inhibitory activity of compounds on human IL-17AF
T1 construct: purchased Sino Biological Inc. CT047-H08H
T1 sequence (Q16552 24-155): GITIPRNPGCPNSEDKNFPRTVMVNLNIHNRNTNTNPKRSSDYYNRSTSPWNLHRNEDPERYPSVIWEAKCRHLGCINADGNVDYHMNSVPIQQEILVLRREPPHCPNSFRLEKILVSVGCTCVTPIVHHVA
T1 sequence (Q96PD4 31-163): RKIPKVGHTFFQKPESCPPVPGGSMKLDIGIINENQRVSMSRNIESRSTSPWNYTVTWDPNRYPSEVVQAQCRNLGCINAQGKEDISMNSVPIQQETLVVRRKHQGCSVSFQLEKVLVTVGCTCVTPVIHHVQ
In short: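 Inhibitors were first pre-incubated 10 min at 25 °C with plate-bound IL-17AF (coated at 0.625 μg/ml, PBS pH 7.4) before a 30-min exposure to IL-17Ra added from a 100 nM solution. Receptor capture read via anti-Fc HRP, TMB, A450. Residual activity normalized to blank/DMSO wells; IC50 by log(inhibitor)-normalized response, variable slope.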

Compound | IC50 [nM]
CCn1nccc1C(=O)N[C@H](C(=O)Nc1ccc2c(c1)COCCc1n[nH]c(C)c1-2)C(C1CC1)C1CC1 [compound 3] | ≤ 100
Cc1[nH]nc2c1-c1ccc(NC(=O)[C@@H](NC(=O)c3ccnn3C3CC3)C(C3CC3)C3CC3)cc1COCC2 [compound 6] | 100 to 500
Cc1[nH]nc2c1-c1cnc(NC(=O)[C@@H](NC(=O)c3ccnn3C[C@@H]3C[C@H]3F)C(C3CC3)C3CC3)cc1COCC2 [compound 125] | 100 to 500
Cc1[nH]nc2c1-c1cc(F)c(NC(=O)[C@@H](NC(=O)c3ccnn3C(C)C)C(C3CC3)C3CC3)cc1CN(C)C(=O)C2 [compound 132] | 100 to 500
CCn1nccc1C(=O)N[C@H](C(=O)Nc1cc2c(cc1F)-c1c(n[nH]c1C)CC(=O)N(C)C2)C(C1CC1)C1CC1 [compound 133] | 100 to 500
Cc1[nH]nc2c1-c1cc(F)c(NC(=O)[C@@H](NC(=O)c3ccnn3C(C)C)C(C3CC3)C3CC3)cc1CN(C1CC1)C(=O)C2 [compound 136] | ≤ 100
CCN1Cc2cc(NC(=O)[C@@H](NC(=O)c3ccnn3C(C)C)C(C3CC3)C3CC3)c(F)cc2-c2c(n[nH]c2C)CC1=O [compound 142] | ≤ 100
CCN1Cc2cc(NC(=O)[C@@H](NC(=O)c3ccnn3CC)C(C3CC3)C3CC3)c(F)cc2-c2c(n[nH]c2C)CC1=O [compound 143] | ≤ 100
Cc1[nH]nc2c1-c1cc(F)c(NC(=O)[C@@H](NC(=O)c3ccnn3C(C)C)C(C3CC3)C3CC3)cc1CN(CC(F)F)C(=O)C2 [compound 144] | 100 to 500
CCn1nccc1C(=O)N[C@H](C(=O)Nc1cc2c(cc1F)-c1c(n[nH]c1C)CC(=O)N(CC(F)F)C2)C(C1CC1)C1CC1 [compound 145] | ≤ 100
Cc1[nH]nc2c1-c1cc(F)c(NC(=O)[C@@H](NC(=O)c3ccnn3C(C)C)C(C3CC3)C3CC3)cc1CN(CC(C)(F)F)C(=O)C2 [compound 148] | 100 to 500
CCn1nccc1C(=O)N[C@H](C(=O)Nc1cc2c(cc1F)-c1c(n[nH]c1C)CC(=O)N(CC(C)(F)F)C2)C(C1CC1)C1CC1 [compound 149] | ≤ 100
Cc1[nH]nc2c1-c1cc(F)c(NC(=O)[C@@H](NC(=O)c3ccnn3C(C)C)C(C3CC3)C3CC3)cc1CN(C(C)C)C(=O)C2 [compound 150] | ≤ 100
CCn1nccc1C(=O)N[C@H](C(=O)Nc1cc2c(cc1F)-c1c(n[nH]c1C)CC(=O)N(C(C)C)C2)C(C1CC1)C1CC1 [compound 151] | ≤ 100
Cc1[nH]nc2c1-c1cc(F)c(NC(=O)[C@@H](NC(=O)c3ccnn3C(C)C)C(C3CC3)C3CC3)cc1CN(CC(F)(F)F)C(=O)C2 [compound 152] | 100 to 500
Cc1[nH]nc2c1-c1cc(F)c(NC(=O)[C@@H](NC(=O)c3ccnn3C(C)C)C(C3CC3)C3CC3)cc1CN(CC1CC1)C(=O)C2 [compound 153] | ≤ 100
CCN1CCc2n[nH]c(C)c2-c2cc(F)c(NC(=O)[C@@H](NC(=O)c3ccnn3C(C)C)C(C3CC3)C3CC3)cc2C1 [compound 156] | 100 to 500
Cc1[nH]nc2c1-c1cc(F)c(NC(=O)[C@@H](NC(=O)c3ccnn3C(C)C)C(C3CC3)C3CC3)cc1CN(CC(F)F)CC2 [compound 158] | 100 to 500
CCn1nccc1C(=O)N[C@H](C(=O)Nc1cc2c(cc1F)-c1c(n[nH]c1C)CCN(CC(F)F)C2)C(C1CC1)C1CC1 [compound 159] | ≤ 100
Cc1[nH]nc2c1-c1cc(F)c(NC(=O)[C@@H](NC(=O)c3ccnn3C(C)C)C(C3CC3)C3CC3)cc1CN(CC(C)(F)F)CC2 [compound 160] | 100 to 500
CCn1nccc1C(=O)N[C@H](C(=O)Nc1cc2c(cc1F)-c1c(n[nH]c1C)CCN(CC(C)(F)F)C2)C(C1CC1)C1CC1 [compound 161] | ≤ 100
Cc1[nH]nc2c1-c1cc(F)c(NC(=O)[C@@H](NC(=O)c3ccnn3C(C)C)C(C3CC3)C3CC3)cc1CN(CC(F)(F)F)CC2 [compound 164] | 100 to 500
Cc1[nH]nc2c1-c1cc(F)c(NC(=O)[C@@H](NC(=O)c3ccnn3C(C)C)C(C3CC3)C3CC3)cc1CN(C1CC1)CC2 [compound 165] | 100 to 500
